The text below walks through data of article PMC11931445, “A Novel Compound QO‐83 Alleviates Acute and Chronic Epileptic Seizures in Rodents by Modulating KV7 Channel Activity” (CNS Neuroscience & Therapeutics, 2025).

The structures appear in SMILES notation.

Series [1] relates to pilocarpine-induced seizures. Briefly: Pilocarpine-induced status epilepticus model with EEG. In kind it is in vivo, Sprague–Dawley (SD) rats. An excerpt:
For animal experiments, we used adult male Sprague–Dawley (SD) rats weighing between 240 and 260 g. Isoflurane anesthesia was used for all operations. Rats were secured in a stereotaxic frame, and the anterior fontanelle was marked 3 mm posteriorly. Additionally, marks were made approximately 3 mm lateral to the midline on both sides to indicate the insertion points for the positive and negative electrodes. A ground electrode was placed subcutaneously in the occipital lobe to eliminate recording noise. Postoperatively, each animal was housed separately in a single cage and provided food and water ad libitum. After a 3‐day adaptation period, electroencephalograms (EEG) were recorded.
The experimental procedure commenced with an intraperitoneal injection of lithium chloride (127 mg/kg). After 24 h, subcutaneous scopolamine methyl nitrate (1 mg/kg) was administered. […] Twenty minutes later, status epilepticus (SE) was induced by administering pilocarpine (100 mg/kg, i.p.). SE was terminated 2 h later by administering 10% chloral hydrate.
The Pilo group, 2 mg/kg XE991 group, and 2 mg/kg XE991 + 1 mg/kg QO‐83 group received an intraperitoneal injection of lithium chloride (127 mg/kg) 24 h prior to testing. Following this, scopolamine methyl nitrate (1 mg/kg) was administered […], and after 10 min, each group was treated with 25% beta‐cyclodextrin, 2 mg/kg XE991, or 2 mg/kg XE991, respectively. After 15 min, 25% beta‐cyclodextrin, 25% beta‐cyclodextrin, or 1 mg/kg QO‐83 was administered. Finally, 25 min later, pilocarpine (100 mg/kg, i.p.) was administered to induce seizures.
Seizure severity was assessed using a standardized scale ranging from 1 to 5, adapted from previous research criteria. Stage 1 encompasses mouth and facial movements, including wet dog shakes. Stage 2 involves head nodding. Stage 3 is characterized by unilateral forelimb clonus. […] Finally, stage 5 manifests as clonus of all limbs accompanied by falling.

The target of series [2] is T1, KV7.2 (Homo sapiens, UniProt O43526).
T1 construct: expressed in transfected cells
Briefly: Manual patch clamp, KV7 currents. Format: cell-based. The conditions noted are these: 20 μM XE991. On the procedure:
Pipettes (1–6 MΩ) were filled with a solution of KCl (145 mM), MgCl2 (1 mM), HEPES (10 mM), and EDTA (5 mM). The pH was adjusted to 7.2 with NaOH. Electrophysiological measurements were obtained using an AXON Multiclamp 700 B patch‐clamp amplifier. The bath solution contained NaCl (144 mM), KCl (5 mM), MgCl2 (1 mM), CaCl2 (2 mM), and D‐glucose (10 mM), with the pH adjusted to 7.4 using NaOH. The protocol involved an increase in voltage from −120 mV to 40 mV in increments of 10 mV to evoke a series of KV7 currents (1000 ms per pulse) in the bath solution. For details on cell culture, please see Appendix S1 2.2.1.
Statistical differences between multiple groups (mean ± SEM) were compared using one‐ or two‐way ANOVA. Electrophysiological data were analyzed using SPSS version 21 and OriginPro (version 9.1.0). P Peak inward currents obtained from activation protocols were calculated using the following equation: G = I/(Vm‐EK), where G is conductance, I is peak inward current, Vm is instantaneous membrane potential, and EK is equilibrium potential for the […] channel. Conductance data were normalized using maximum conductance and further fitted to the Boltzmann equation: G=Gmax+Gmin−Gmax/1+expVm−V1/2/k , where G is conductance, V1/2 is midpoint of activation, and k is slope factor. The “Spectrum” module of LabChart was used for data analysis of EEG signals, including the calculation of power density and averaging power spectral density (PSD).
Stable Chinese Hamster Ovary (CHO) cell lines expressing specific Kv7 channel subtypes, including KV7.2 and KV7.2/7.3, were cultured in Minimum Essential Medium (MEM) supplemented with 10% fetal calf serum, 1× nonessential amino acids, […], and […] hygromycin B. Concurrently, KV7.4 and KV7.5 channels were stably expressed in Human Embryonic Kidney 293A (HEK293A) cell lines and nurtured in Dulbecco's Modified Eagle Medium (DMEM) high glucose medium supplemented with 10% fetal bovine serum (FBS), […], and […] hygromycin B.

For series [3], the system named is liver tissue. The series is described as follows: Liver toxicity, 28 days gavage. In kind it is in vivo, KM mice. The conditions noted are these: for liver-body weight ratio compared to control: QO-83 20, Flupirtine 20, APAP 200 mg/kg/d. How it is done:
Twenty-four KM mice, half male and half female, weighing between 18 and 22 g, were randomly divided into four groups, each consisting of six mice: a control group, an acetaminophen (APAP) group, a flupirtine (FM) group, and a QO-83 group. The treatment lasted for 28 days, and the drug solvent was a 0.8% sodium carboxymethyl cellulose solution. The control group received an equal amount of 0.8% sodium carboxymethyl cellulose solution. A single dose was administered to each group via gavage, and the dosage volume was calculated based on the body weight of the mice. The control group received 0.8% sodium carboxymethyl cellulose solution, the APAP group received acetaminophen at 200 mg/kg/d, the FM group received […] at 20 mg/kg/d, and the QO-83 group received QO-83 at 20 mg/kg/d. After 28 days of administration, the liver was isolated, fixed in 4% paraformaldehyde for at least 24 h, routinely embedded in paraffin, and sectioned into 3–5 μm continuous slices. Hematoxylin-eosin (HE) staining was performed to observe the pathological structure of the tissue. After staining with HE, the tissue was dehydrated using an alcohol gradient, cleared, and mounted for the observation of liver lesions under a light microscope.

Series [4] concerns L02 cells. The series is described as follows: MTT cytotoxicity. In kind it is cell-based, human. The conditions noted are these: 100 μM; 24h and 48h. How it is done: Normal human liver L02 cells were cultured in RPMI-1640 complete medium and maintained in a humidified incubator at 37°C with 5% CO2. Cell status was observed daily, and the medium was changed every 1–2 days. During the experiment, cells in good condition and in the logarithmic growth phase were selected. After digestion and collection, the cells were evenly suspended, and the cell suspension concentration was adjusted to 5×10^4 cells/mL. A volume of 150 μL was inoculated per well in a 96-well plate, leaving the surrounding wells for the addition of sterilized PBS (100 μL per well) to prevent edge effects. The plate was then placed in an incubator for further incubation. After 12 h of culturing to allow cell adhesion, the culture medium was aspirated from the 96-well plate. Based on the control, QO-83 was added at concentrations of 0.1 μM, 0.3 μM, 1 μM, 3 μM, 10 μM, 30 μM, and 100 μM, along with Flupirtine (100 μM) in a concentration gradient of 150 μL per well, with six replicates for each group. The control group served as the normal control. The cultures were incubated for 24 and 48 h, respectively. After this period, the culture medium was removed, and 50 μL of 5 mg/mL MTT solution was added to each well, followed by continued incubation for 4 h. […] Finally, the absorbance was measured using a microplate reader (preheated for at least 15 min) at a wavelength of 490 nm.

In the case of `O=C1c2ccccc2C(Cc2ccncc2)(Cc2ccncc2)c2ccccc21` [XE991], the “effect on EEG power density (0–50 Hz and δ, θ, α, β bands)” value in series [1] (2 mg/kg XE991, compared to PILO group) is “significantly increased the power density”. Also, in series [1] (2 mg/kg XE991 alone), the “seizure grade versus model group” value is “No significant differences”. This molecule had a seizure latency in series [1] (2 mg/kg XE991 alone, Pilo model 22.73 ± 6.03 min) of 8.52 ± 4.73 min. Moreover, in series [2], the “effect on QO-83-induced increase in KV7.2 channel current” value was “significantly inhibited the increase in KV7.2 channel current”.

On to `CC(=O)Nc1ccc(O)cc1` [APAP, Acetaminophen], for which, in series [3] (QO-83 20 mg/kg/d, APAP 200 mg/kg/d), the “liver tissue pathology (HE staining)” value is “significant pathological changes”. Further, the “liver-body weight ratio compared to control” value in series [3] is reported as “increased significantly”.

Take `CCOC(=O)Nc1ccc(NCc2ccc(F)cc2)nc1N` [Flupirtine]: in series [3], the “liver-body weight ratio compared to control” value is on record as “increased significantly”. Besides, the “effect on cell viability (MTT)” value in series [4] is given as “significantly inhibited cell viability”.
